# Data as given in patent US20080318943A1, “Compounds and Uses Thereof - 848” (ASTRAZENECA AB, priority 2007, published 2008).
# Target: T1, GABAA2 receptors (α2, β3, γ2 receptor subunits transfected into Sf9 cells) (Homo sapiens, UniProt P18507+P47869)
# T1 construct: host or cells: Sf9 cells (membranes)
# Assay: GABAA2 Binding Method ([3H]-Flunitrazepam displacement)
# Details: [3H]-Flunitrazepam ~2 nM, α2β3γ2 Sf9 membranes, 1 hr at 4° C.
# Method: In some embodiments, the binding test is directed to a subtype of GABAA receptors, such as GABAA1 receptors (i.e., those containing the α1 subunit), GABAA2 receptors (i.e., those containing the α2 subunit), GABAA3 receptors (i.e., those containing the α3 subunit) and GABAA5 receptors (i.e., those containing the α5 subunit).
# [^3H]-Flunitrazepam (Cat #NET567): Prepare 10× stock=20 nM, [F} in assay=˜2 nM
# 1. […] Add 5 ul of 30 uM flumazenil to wells 12 D-E for 50% control wells.
# 5. Add 25 μl [^3H]-Flunitrazepam (Automation Program 6). Incubate for 1 hr at 4° C.
# 6. Collect membranes on a cell harvester onto GF/B filter plates (pre-wet with dH2O and wash 5×400 μl/well, with cold assay buffer. (First 3 washes are considered hot; last two are cold.)
# Data is analyzed by calculating percent of control, IC50, and Ki in an XLfit template. The following formula is used in the templates: […]
# T1 sequence (P47869 29-451): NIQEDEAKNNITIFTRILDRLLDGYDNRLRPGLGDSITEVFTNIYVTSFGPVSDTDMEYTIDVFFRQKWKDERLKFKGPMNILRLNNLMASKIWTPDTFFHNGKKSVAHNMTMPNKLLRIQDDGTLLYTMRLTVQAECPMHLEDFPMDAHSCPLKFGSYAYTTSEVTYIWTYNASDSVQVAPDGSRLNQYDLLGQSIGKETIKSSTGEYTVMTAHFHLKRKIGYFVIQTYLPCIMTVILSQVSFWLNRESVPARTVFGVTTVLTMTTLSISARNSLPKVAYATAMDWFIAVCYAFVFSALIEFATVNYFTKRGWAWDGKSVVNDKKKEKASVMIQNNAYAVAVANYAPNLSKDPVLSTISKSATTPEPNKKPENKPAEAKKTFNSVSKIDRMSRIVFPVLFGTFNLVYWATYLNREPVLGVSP
# T1 sequence (P28472 26-473 partner): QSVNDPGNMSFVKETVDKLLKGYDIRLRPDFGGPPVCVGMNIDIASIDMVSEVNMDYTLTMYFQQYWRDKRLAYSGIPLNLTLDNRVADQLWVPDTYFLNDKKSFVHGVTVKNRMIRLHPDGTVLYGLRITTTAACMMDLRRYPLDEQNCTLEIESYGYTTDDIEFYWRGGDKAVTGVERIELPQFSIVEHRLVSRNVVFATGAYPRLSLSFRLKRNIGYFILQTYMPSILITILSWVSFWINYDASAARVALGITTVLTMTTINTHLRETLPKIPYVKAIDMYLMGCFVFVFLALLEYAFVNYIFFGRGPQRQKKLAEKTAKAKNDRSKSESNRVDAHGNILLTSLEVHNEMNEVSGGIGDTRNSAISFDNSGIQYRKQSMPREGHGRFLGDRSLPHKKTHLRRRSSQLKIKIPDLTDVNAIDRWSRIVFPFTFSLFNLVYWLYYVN
# T1 sequence (P18507 40-475): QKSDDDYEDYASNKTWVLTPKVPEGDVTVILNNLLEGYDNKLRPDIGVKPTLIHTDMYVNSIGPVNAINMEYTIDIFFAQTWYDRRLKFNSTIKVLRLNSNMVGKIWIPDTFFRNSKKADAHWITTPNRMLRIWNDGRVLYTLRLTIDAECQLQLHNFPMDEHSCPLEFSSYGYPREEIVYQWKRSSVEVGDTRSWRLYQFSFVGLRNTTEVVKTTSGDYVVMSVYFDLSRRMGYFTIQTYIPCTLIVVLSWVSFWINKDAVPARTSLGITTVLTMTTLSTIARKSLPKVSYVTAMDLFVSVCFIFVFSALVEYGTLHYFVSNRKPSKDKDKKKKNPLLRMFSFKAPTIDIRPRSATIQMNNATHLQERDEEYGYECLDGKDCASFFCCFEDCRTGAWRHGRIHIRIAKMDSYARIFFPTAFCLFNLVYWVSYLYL
row,SMILES,Ki [µM]
1,"COc1cc(F)cc(-c2cccc3c(N)c4c(nc23)CN(C)C4=O)c1 [9-amino-5-(3-fluoro-5-methoxyphenyl)-2-methyl-2,3-dihydro-1H-pyrrolo[3,4-b]quinolin-1-one]",0.0804
2,"CCCN1Cc2nc3c(-c4c(C#N)cccc4OC)cccc3c(N)c2C1=O [2-(9-amino-1-oxo-2-propyl-2,3-dihydro-1H-pyrrolo[3,4-b]quinolin-5-yl)-3-methoxybenzonitrile]",0.0757
3,"CCC(C)N1Cc2nc3c(-c4c(F)cccc4OC)cccc3c(N)c2C1=O (stereo not shown) [9-amino-2-(2-butyl)-5-(2-fluoro-6-methoxyphenyl)-2,3-dihydro-1H-pyrrolo[3,4-b]quinolin-1-one]",0.0462
4,"COc1ccc(F)cc1-c1cccc2c(N)c3c(nc12)CN(C1CC1)C3=O [9-amino-2-cyclopropyl-5-(5-fluoro-2-methoxyphenyl)-2,3-dihydro-1H-pyrrolo[3,4-b]quinolin-1-one]",0.0734
5,"CCN1Cc2nc3c(-c4ccc(OC)cc4OC)cccc3c(N)c2C1=O [9-amino-5-(2,4-dimethoxyphenyl)-2-ethyl-2,3-dihydro-1H-pyrrolo[3,4-b]quinolin-1-one]",0.0991
6,"COc1ccc(CN2Cc3nc4c(-c5cc(C)ccc5OC)cccc4c(N)c3C2=O)cc1 [9-amino-5-(2-methoxy-5-methylphenyl)-2-(4-methoxybenzyl)-2,3-dihydro-1H-pyrrolo[3,4-b]quinolin-1-one]",0.0551
7,"COc1cc(F)ccc1-c1cccc2c(N)c3c(nc12)CN(C1CC1)C3=O [9-amino-2-cyclopropyl-5-(4-fluoro-2-methoxyphenyl)-2,3-dihydro-1H-pyrrolo[3,4-b]quinolin-1-one]",0.0831
8,"COc1ccc(CN2Cc3nc4c(-c5ccccc5C(F)(F)F)cccc4c(N)c3C2=O)cc1 [9-amino-2-(4-methoxybenzyl)-5-(2-(trifluoromethyl)phenyl)-2,3-dihydro-1H-pyrrolo[3,4-b]quinolin-1-one]",0.0341
9,"COc1ccc(-c2c(F)ccc3c(N)c4c(nc23)CN(C2CCC2)C4=O)c(OC)n1 [Example 52, 9-Amino-2-cyclobutyl-5-(2,6-dimethoxypyridin-3-yl)-6-fluoro-2,3-dihydropyrrolo[3,4-b]quinolin-1-one]",0.000774
10,"CCCN1Cc2nc3c(-c4ccc(C#N)cc4)cccc3c(N)c2C1=O [4-(9-amino-1-oxo-2-propyl-2,3-dihydro-1H-pyrrolo[3,4-b]quinolin-5-yl)benzonitrile]",0.0521
11,"COc1ccc(-c2c(F)ccc3c(N)c4c(nc23)CN(C2CC2)C4=O)c(OC)c1 [Example 28, 9-Amino-2-cyclopropyl-5-(2,4-dimethoxyphenyl)-6-fluoro-2,3-dihydropyrrolo[3,4-b]quinolin-1-one]",0.00833
12,"CCCN1Cc2nc3c(-c4ccc(F)c(C#N)c4)cccc3c(N)c2C1=O [5-(9-amino-1-oxo-2-propyl-2,3-dihydro-1H-pyrrolo[3,4-b]quinolin-5-yl)-2-fluorobenzonitrile]",0.0745
13,"CCN1Cc2nc3c(-c4cnc(OC)nc4OC)c(F)ccc3c(N)c2C1=O [Example 34, 9-Amino-5-(2,4-dimethoxypyrimidin-5-yl)-2-ethyl-6-fluoro-2,3-dihydropyrrolo[3,4-b]quinolin-1-one]",0.0167
14,"CCCN1Cc2nc3c(-c4cccc(F)c4OC)cccc3c(N)c2C1=O [9-amino-5-(3-fluoro-2-methoxyphenyl)-2-propyl-2,3-dihydro-1H-pyrrolo[3,4-b]quinolin-1-one]",0.057
15,"CN1Cc2nc3c(-c4ccccc4C#N)cccc3c(N)c2C1=O [2-(9-amino-2-methyl-1-oxo-2,3-dihydro-1H-pyrrolo[3,4-b]quinolin-5-yl)benzonitrile]",0.0643
16,"COc1cc(F)c(-c2cccc3c(N)c4c(nc23)CN(C2CC2)C4=O)cc1F [9-amino-2-cyclopropyl-5-(2,5-difluoro-4-methoxyphenyl)-2,3-dihydro-1H-pyrrolo[3,4-b]quinolin-1-one]",0.0368

row,SMILES,Ki [µM]
1,"COc1ccc(CN2Cc3nc4c(-c5ccc(C)nc5)cccc4c(N)c3C2=O)cc1 [9-amino-2-(4-methoxybenzyl)-5-(6-methylpyridin-3-yl)-2,3-dihydro-1H-pyrrolo[3,4-b]quinolin-1-one]",0.0605
2,"CCN1Cc2nc3c(-c4cc(OC)cc(OC)c4)cccc3c(N)c2C1=O [9-amino-5-(3,5-dimethoxyphenyl)-2-ethyl-2,3-dihydro-1H-pyrrolo[3,4-b]quinolin-1-one]",0.0272
3,"CCN1Cc2nc3c(-c4c(OC)cccc4OC)cccc3c(N)c2C1=O [9-amino-5-(2,6-dimethoxyphenyl)-2-ethyl-2,3-dihydro-1H-pyrrolo[3,4-b]quinolin-1-one]",0.0825
4,"COc1ncc(-c2cccc3c(N)c4c(nc23)CN(C2CC2)C4=O)c(OC)n1 [9-amino-2-cyclopropyl-5-(2,4-dimethoxypyrimidin-5-yl)-2,3-dihydro-1H-pyrrolo[3,4-b]quinolin-1-one]",0.0782
5,"CCCN1Cc2nc3c(-c4cc(-c5ccncc5)ccc4OC)cccc3c(N)c2C1=O [9-amino-5-(2-methoxy-5-(pyridin-4-yl)phenyl)-2-propyl-2,3-dihydro-1H-pyrrolo[3,4-b]quinolin-1-one]",0.0511
6,"CCCN1Cc2nc3c(-c4ccc(Cl)nc4Cl)cccc3c(N)c2C1=O [9-amino-5-(2,6-dichloropyridin-3-yl)-2-propyl-2,3-dihydro-1H-pyrrolo[3,4-b]quinolin-1-one]",0.0216
7,"CCCN1Cc2nc3c(-c4cnc(OC)c(F)c4)cccc3c(N)c2C1=O [9-amino-5-(5-fluoro-6-methoxypyridin-3-yl)-2-propyl-2,3-dihydro-1H-pyrrolo[3,4-b]quinolin-1-one]",0.0811
8,"CCCCN1Cc2nc3c(-c4ccc(C)nc4)cccc3c(N)c2C1=O [9-amino-2-butyl-5-(6-methylpyridin-3-yl)-2,3-dihydro-1H-pyrrolo[3,4-b]quinolin-1-one]",0.0905
9,"CCN1Cc2nc3c(-c4ccc(C)nc4)cccc3c(N)c2C1=O [9-amino-2-ethyl-5-(6-methylpyridin-3-yl)-2,3-dihydro-1H-pyrrolo[3,4-b]quinolin-1-one]",0.0776
10,"COc1ccc(CN2Cc3nc4c(-c5cnn(C)c5)cccc4c(N)c3C2=O)cc1 [9-amino-2-(4-methoxybenzyl)-5-(1-methyl-1H-pyrazol-4-yl)-2,3-dihydro-1H-pyrrolo[3,4-b]quinolin-1-one]",0.0706
11,"COc1ccc(-c2cccc3c(N)c4c(nc23)CN(C2CC2)C4=O)c(OC)c1 [9-amino-2-cyclopropyl-5-(2,4-dimethoxyphenyl)-2,3-dihydro-1H-pyrrolo[3,4-b]quinolin-1-one]",0.0584
12,"CCCN1Cc2nc3c(-c4cnc(OC)nc4)cccc3c(N)c2C1=O [9-amino-5-(2-methoxypyrimidin-5-yl)-2-propyl-2,3-dihydro-1H-pyrrolo[3,4-b]quinolin-1-one]",0.0758
13,"CCCN1Cc2nc3c(-c4ccc(F)cc4)cccc3c(N)c2C1=O [9-amino-5-(4-fluorophenyl)-2-propyl-2,3-dihydro-1H-pyrrolo[3,4-b]quinolin-1-one]",0.0783
14,"Nc1c2c(nc3c(-c4cc(F)cc(F)c4)cccc13)CN(C1CCC1)C2=O [9-amino-2-cyclobutyl-5-(3,5-difluorophenyl)-2,3-dihydro-1H-pyrrolo[3,4-b]quinolin-1-one]",0.0393
15,"CCN1Cc2nc3c(-c4cnccc4OC)c(F)ccc3c(N)c2C1=O [Example 36, 9-Amino-2-ethyl-6-fluoro-5-(4-methoxypyridin-3-yl)-2,3-dihydropyrrolo[3,4-b]quinolin-1-one]",0.00243
